Source: PMC11189555, “Aryl amino acetamides prevent Plasmodium falciparum ring development via targeting the lipid-transfer protein PfSTART1” (Nature Communications, 2024)
Where two headings read alike, the source gives them in different places.

Test system: PopD E3 M-833 resistant clone (PfSTART1 N309K)
Assay: Growth inhibition assay (72 h, LDH activity)
Format: cell-based, Plasmodium falciparum
Protocol: The drug was then removed, and parasites were allowed to recover. Another cycle of drug treatment (3 μM M-833) was then resumed. The resistant lines were cloned out by limiting dilution (diluting the culture into a 96-well plate to achieve an average of ~0.3 parasites per well), prior to growth inhibition assays and genomic DNA (gDNA) extraction (DNeasy Blood and Tissue kit (Qiagen)[18].
Parasite growth assays with inhibitory compounds were performed as per[11] and are fully described in the Supplementary Information.
Molecular biology and transfection of P. falciparum: CRISPR method.
The full 5’ homology region of pfstart1 (either WT, N309K or N330K) was amplified from pPfSTART1-HA-2A-Neo-glmS with the same 5’ BglII primer and a new 3’ primer that replaced with PstI with SpeI and introduced a stop codon. The PCR product was then digested with BglII and SpeI and inserted into similarly digested p1.2 parasite vector2. The p1.2 vector had previously been inserted with a homology region amplified from the 3’ end of the pfstart1 gene (3’HB) to form a second homology block for double recombination. The primers used to amplify 3’HB are listed primers listed in […]
60 μg of p1.2-PfSTART1(WT/N309K/N330K) plasmid was linearised with KasI, precipitated in 3 M sodium acetate and ethanol (70% final concentration) overnight at -20°C. The DNA pellet was washed in cold 70% ethanol and resuspended in cytomix 3.
50 μ M of crRNA ( Table S 2) and 50 μM of tracRNA (Integrated DNA Technologies) were allowed to form a duplex (5 min at 95°C), and Cas9 enzyme (Integrated DNA Technologies) was added, and incubated for 20 min at room temperature 4. This crRNA -tracRNA -Cas9 mix was added to each DNA preparation and transfected to 3D7 ring parasites using the Bio -Rad Gene Pulser at 310 V and 950 μF.
Parasites containing the transfected DNA were selected using 2.5 nM WR99210 (Jacobus). Parasites lines were cloned using limiting dilution. Correct integration was tested by PCR (using primer START_5’UTR.F and START_Int.R1 , Table S 2), and sequencing was done using the primers START_3F and START_Int.R2 (Table S 2).
Growth inhibition assays. Synchronised ring-stage parasites (0.3-0.6% parasitemia, 2% haematocrit) were grown for 72 h in a serial-dilution of the compound under […]
and compound 4. Note that M-833 was first purchased from MolPort (MolPort -002-267-916) then made in-house at WEHI: the differences observed in EC50s across experiments are attributed to the different batches of M -833. For some experiments, 0, 0.25 or 2.5 mM of glucosamine (GlcN) was also added. Experiments were set up in technical duplicates or triplicates. Following a freeze -thaw cycle, lactate dehydrogenase (LDH) activity was assessed as an indicator of parasite growt h 5. 30 μL of parasite culture was incubated for 30 min in the dark with 75 μL Malstat mixture (0.1 M Tris pH 9.0, 20 g/L lactic acid, pH 7.5, 0.2% Triton-X100, 0.5 g/L acetylpyridine adenine dinucleotide (APAD, Sigma), 200 μg/mL nitroblue tetrazolium (NBT; Sigma), 1 μg/mL phenozine ethosulfate (PES; Sigma)). Absorbance was then measured at 650 nm, transformed using the formula below, plotted against the logarithm of the concentrations, and a non-linear regression (log(inhibitor) vs. response, variable slope) was calculated using GraphPad Prism to assess the half-inhibitory […]
Growth inhibition % = (1 − average(sample)− average(uRBC)) ∗ 100 […]
The DMSO samples were also used to assess growth of parasite in the presence of 0.25 and 2.5 mM GlcN (normalised by DMSO in 0 mM GlcN).
Egress, invasion & recovery assay. To measure egress, invasion and follow up recovery in the presence of different compounds, we adapted the method developed in6, using Hyp1-Nluc parasites7. These parasites episomally express the exported PEXEL protein Hyp1 (PF3D7_0113300) tagged with a NanoLuc luciferase (NLuc) and were selected with 2.5 nM WR99210 (Jacobus). Highly synchronised schizonts were […]

Cc1cc(Cl)c(S(=O)(=O)N2CCCC2)cc1OCC(=O)NC1CCCCC1 [M-833]
Normalised to DMSO (M-833 0.0390625 uM, Pop D-E3 replicate 1): 112.377
Normalised to DMSO (M-833 0.0390625 uM, Pop D-E3 replicate 3): 111.25
Normalised to DMSO (M-833 0.078125 uM, Pop D-E3 replicate 1): 99.4191
Normalised to DMSO (M-833 0.078125 uM, Pop D-E3 replicate 3): 110.5
Normalised to DMSO (M-833 0.15625 uM, Pop D-E3 replicate 1): 107.328
Normalised to DMSO (M-833 0.15625 uM, Pop D-E3 replicate 3): 114.438
Normalised to DMSO (M-833 0.3125 uM, Pop D-E3 replicate 1): 106.122
Normalised to DMSO (M-833 0.3125 uM, Pop D-E3 replicate 3): 114.625
Normalised to DMSO (M-833 0.625 uM, Pop D-E3 replicate 1): 101.028
Normalised to DMSO (M-833 0.625 uM, Pop D-E3 replicate 3): 107.875
Normalised to DMSO (M-833 1.25 uM, Pop D-E3 replicate 1): 86.6399
Normalised to DMSO (M-833 1.25 uM, Pop D-E3 replicate 3): 110.688
Normalised to DMSO (M-833 2.5 uM, Pop D-E3 replicate 1): 72.8552
Normalised to DMSO (M-833 2.5 uM, Pop D-E3 replicate 3): 90.4375
Normalised to DMSO (M-833 5 uM, Pop D-E3 replicate 1): 44.37
Normalised to DMSO (M-833 5 uM, Pop D-E3 replicate 3): 73.375
Normalised to DMSO (M-833 10 uM, Pop D-E3 replicate 1): 23.9276
Normalised to DMSO (M-833 10 uM, Pop D-E3 replicate 3): 62.6875
inhibition at 0.0390625 µM (Plasmodium falciparum, M-833 0.0390625 uM, Pop D-E3 replicate 1, read-out: % Inhibition): -12.4%
inhibition at 0.0390625 µM (Plasmodium falciparum, M-833 0.0390625 uM, Pop D-E3 replicate 3, read-out: % Inhibition): -11.2%
inhibition at 0.078125 µM (Plasmodium falciparum, M-833 0.078125 uM, Pop D-E3 replicate 1, read-out: % Inhibition): 0.581%
inhibition at 0.078125 µM (Plasmodium falciparum, M-833 0.078125 uM, Pop D-E3 replicate 3, read-out: % Inhibition): -10.5%
inhibition at 0.15625 µM (Plasmodium falciparum, M-833 0.15625 uM, Pop D-E3 replicate 1, read-out: % Inhibition): -7.33%
inhibition at 0.15625 µM (Plasmodium falciparum, M-833 0.15625 uM, Pop D-E3 replicate 3, read-out: % Inhibition): -14.4%
inhibition at 0.3125 µM (Plasmodium falciparum, M-833 0.3125 uM, Pop D-E3 replicate 1, read-out: % Inhibition): -6.12%
inhibition at 0.3125 µM (Plasmodium falciparum, M-833 0.3125 uM, Pop D-E3 replicate 3, read-out: % Inhibition): -14.6%
inhibition at 0.625 µM (Plasmodium falciparum, M-833 0.625 uM, Pop D-E3 replicate 1, read-out: % Inhibition): -1.03%
inhibition at 0.625 µM (Plasmodium falciparum, M-833 0.625 uM, Pop D-E3 replicate 3, read-out: % Inhibition): -7.88%
inhibition at 1.25 µM (Plasmodium falciparum, M-833 1.25 uM, Pop D-E3 replicate 1, read-out: % Inhibition): 13.4%
inhibition at 1.25 µM (Plasmodium falciparum, M-833 1.25 uM, Pop D-E3 replicate 3, read-out: % Inhibition): -10.7%
inhibition at 2.5 µM (Plasmodium falciparum, M-833 2.5 uM, Pop D-E3 replicate 1, read-out: % Inhibition): 27.1%
inhibition at 2.5 µM (Plasmodium falciparum, M-833 2.5 uM, Pop D-E3 replicate 3, read-out: % Inhibition): 9.56%
inhibition at 5 µM (Plasmodium falciparum, M-833 5 uM, Pop D-E3 replicate 1, read-out: % Inhibition): 55.6%
inhibition at 5 µM (Plasmodium falciparum, M-833 5 uM, Pop D-E3 replicate 3, read-out: % Inhibition): 26.6%
inhibition at 10 µM (Plasmodium falciparum, M-833 10 uM, Pop D-E3 replicate 1, read-out: % Inhibition): 76.1%
inhibition at 10 µM (Plasmodium falciparum, M-833 10 uM, Pop D-E3 replicate 3, read-out: % Inhibition): 37.3%
inhibition at 0.0390625 µM (Plasmodium falciparum, Pop D-E3 replicate 1, M-833 0.0390625 uM): 2.67%
inhibition at 0.078125 µM (Plasmodium falciparum, Pop D-E3 replicate 1, M-833 0.078125 uM): -1.86%
inhibition at 0.15625 µM (Plasmodium falciparum, Pop D-E3 replicate 1, M-833 0.15625 uM): 1.05%
inhibition at 0.3125 µM (Plasmodium falciparum, Pop D-E3 replicate 1, M-833 0.3125 uM): 2.17%
inhibition at 0.625 µM (Plasmodium falciparum, Pop D-E3 replicate 1, M-833 0.625 uM): 5.06%
inhibition at 1.25 µM (Plasmodium falciparum, Pop D-E3 replicate 1, M-833 1.25 uM): 17.9%
inhibition at 2.5 µM (Plasmodium falciparum, Pop D-E3 replicate 1, M-833 2.5 uM): 29.5%
inhibition at 5 µM (Plasmodium falciparum, Pop D-E3 replicate 1, M-833 5 uM): 46.7%
inhibition at 10 µM (Plasmodium falciparum, Pop D-E3 replicate 1, M-833 10 uM): 65.4%
EC50 (Plasmodium falciparum, read-out: EC50 (95% confidence interval)): 3.53 µM
Normalised to DMSO (Pop D-E3 replicate 1, M-833 0.0390625 uM): 97.3266
Normalised to DMSO (Pop D-E3 replicate 1, M-833 0.078125 uM): 101.86
Normalised to DMSO (Pop D-E3 replicate 1, M-833 0.15625 uM): 98.9539
Normalised to DMSO (Pop D-E3 replicate 1, M-833 0.3125 uM): 97.8303
Normalised to DMSO (Pop D-E3 replicate 1, M-833 0.625 uM): 94.9438
Normalised to DMSO (Pop D-E3 replicate 1, M-833 1.25 uM): 82.1
Normalised to DMSO (Pop D-E3 replicate 1, M-833 2.5 uM): 70.5347
Normalised to DMSO (Pop D-E3 replicate 1, M-833 5 uM): 53.3127
Normalised to DMSO (Pop D-E3 replicate 1, M-833 10 uM): 34.6377
